Test [1] has as its target T1, TrkA (Homo sapiens (Human), UniProt P04629). In words: TrkA kinase-inhibiting activity using human TrkA expressing cells (CellSenser TrkA-NFAT-bla CHO-K1, NGF-stimulated reporter assay). The test is classed as cell-based. Particulars: CHO-K1 cells expressing human TrkA and NFAT-bla; NGF 50 ng/ml; read-out: TrkA inhibitory activity (IC50; μM). The procedure: TrkA kinase-inhibiting activity in cell systems was measured using CHO-K1 cells expressing human TrkA and NFAT-bla (CellSenser™ TrkA-NFAT-bla CHO-K1 cells, Invitrogen).
On the day before the assay, CellSenser™ TrkA-NFAT-bla CHO-K1 cells were suspended in an assay medium (Opti-MEM1 Reduced Serum Medium (Invitrogen) containing 0.5% dialysed fetal bovine serum (Invitrogen), 0.1 mM nonessential amino acids (Invitrogen), 1 mM sodium pyruvate (Invitrogen) and antibiotics (100 U/mL penicillin and 100 μg/mL streptomycin (Invitrogen)) and plated at a density of 2.4×10^4 cells/40 μL/well in a 96-well clear bottom plate (Corning, Catalogue No.: 3882). In some wells were added only the assay medium at 40 μL/well (Cell-free). On the day of the assay, 10 mM of the present compound (DMSO solution) was distributed in a 96-well plate (Costar, Catalogue No.: 3363) and serially diluted with DMSO with the geometrical ratio of 3. The serial dilutions were diluted with the assay medium to 100-fold to prepare a solution of the present compound with a 10-times concentration (DMSO concentration: 1%). To the plate where cells were plated was added the present compound at 5 μL/well and the plate was incubated in a CO2 incubator with 5% CO2, 95% Air at 37° C. for 30 minutes. For a control and a blank, the assay medium containing 1% DMSO was added at 5 μL/well in place of the solution of the present compound. Subsequently the assay medium containing NGF (Mouse 2.5s, Natural, Invitrogen) was added to the plate at 5 µL/well (final concentration of NGF: 50 ng/ml) and the plate was incubated in a CO2 incubator with 5% CO2, 95% Air at 37° C. for 5 hours. For a group of blanks, the assay medium was added in place of NGF at 5 μL/well. A reporter assay detection reagent (10 μL/well) was added to the plate and the plate was then incubated in the dark at room temperature for 120 minutes. The reporter assay detection reagent was prepared from LiveBLAzer™-FRET B/G Loading Kit (Invitrogen). On an Analyst GT (Molecular Devices Japan, K.K.) the wells were irradiated with excitation light at 405 nm and the fluorescence intensities at 460 nm and 530 nm were measured. The time resolved fluorescence resonance energy transfer (TR-FRET) ratio of each well was calculated according to the following Equation 2. TR-FRET Ratio=(A460X−A460F)/(A530X−A530F) Equation 2
wherein A460X: the fluorescence intensity at 460 nm of the present compound, control or blank;
A460F: the fluorescence intensity at 460 nm of the Cell-free;
A530X: the fluorescence intensity at 530 nm of the present compound, control or blank; and
A530F: the fluorescence intensity at 530 nm of the Cell-free. […]
The IC50 value of the present compound was calculated from the inhibition curve based on the inhibition rate of the present compound at respective concentrations.

Test [2] has as its system NGF-induced vascular hyper permeability. Nature of the test: Suppression of rat NGF-induced vascular hyper permeability (in vivo test, Evans Blue). As to conditions: oral, 12 hours after administration, read-out: Rates of Suppression for Vascular Hyper Permeability (%). Here is the method:
TrkA-inhibiting activity of the present compound was evaluated in vivo. The present compound dissolved in a medium was orally administered (adminstered volume: 5 mL/kg) to male CD(SD)IGS rats (7- to 9-week old, Charles River laboratories Japan, Inc.) shaved on the back. A medium was orally administered (adminstered volume: 5 mL/kg) to the control and normal groups. After 6 or 12 hours of administration, 3 μg/mL of a NGF (Mouse 2.5s, Natural, Invitrogen) solution prepared in 0.1% BSA (Sigma-Aldrich)-containing saline was intracutaneously administered (dose; 50 μL/site) at 3 sites on the back of animals under halothane anesthesia. For the normal group, 0.1% BSA-containing saline was intracutaneously administered (dose; 50 μL/site) at 3 sites on the back. Immediately after intracutaneous administration, 1% Evans Blue (Tokyo Chemical Industry Co., Ltd.) was administered intravenously from tail (adminstered volume: 3 mL/kg). After 10 minutes of administration, the animals were sacrificed by bleeding due to incision of the abdominal aorta. The sites of intracutaneous administration on the back (3 sites) were excised and the skin samples were respectively transferred to the wells in a 48-well plate (Asahi Glass Co., Ltd.). Formamide (0.8 mL/well) was added to the plate and the plate was sealed and incubated overnight at 60° C. The formamide extraction solution (200 μL) was transferred to a 96-well plate and the absorbance (wavelength: 620 nm) of Evans Blue extracted in formamide was measured on an absorbance microplate reader (SpectraMAX 190, Molecular Devices Japan, K.K.). Standard samples of Evans Blue dissolved in formamide (0, 0.78, 1.56, 3.13, 6.25, 12.5, 25 and 50 μg/mL) were measured at the same time for the absorbance (wavelength: 620 nm) to generate a calibration curve. Based on the calibration curve and the absorbances of samples, the concentrations of Evans Blue in the sample was calculated. The concentrations of Evans Blue for three skin samples collected from one aminal were averaged to obtain the vale for the animal. The rate of suppression for rat NGF-induced vascular hyper permeability of the present compound was calculated according to the following Equation 4: Suppression rate (%)=(1−(AX−AN)/(AC−AN)}×100 Equation 4
wherein AX: the concentration of Evans Blue of the test compound (an average value of 3 samples from one animal);
AN: the concentration of Evans Blue of the normal group (an average value of 3 samples from one animal);
AC: the concentration of Evans Blue of the control group (an average value of 3 samples from one animal).

The target in test [3] is T1, TrkA. Nature of the test: Measurement of TrkA enzyme-inhibiting activity (LanthaScreen TR-FRET kinase assay). The test is classed as biochemical. Particulars: final ATP 150 μM, read-out: TrkA inhibitory activity (IC50; μM). The procedure:
TrkA-inhibiting activity was measured according to the following method using LanthaScreen™ kinase assay reagents (Invitrogen; Fluorescein-Poly GT, LanthaScreen™ Tb-PY20 and TR-FRET Dilution Buffer), TrkA (Invitrogen), ATP (Sigma-Aldrich), a kinase reaction buffer (50 mM HEPES buffer (Sigma-Aldrich) (pH 7.5) containing 0.01% Brij35 (Sigma-Aldrich), 10 mM MgCl2 (Sigma-Aldrich) and 1 mM EGTA (Sigma-Aldrich)) and 0.5 M EDTA (pH 8.0) (Invitrogen).
The present compound was dissolved in dimethylsulfoxide (hereinafter abbreviated as DMSO) to prepare a 10 mM solution. The test compound at 10 mM was distributed into a 96-well plate and serially diluted with DMSO with the geometrical ratio of 3. The serial dilutions (DMSO solutions) were diluted with the kinase reaction buffer to 20-fold to prepare solutions of the present compound with 5-times concentrations (DMSO concentration: 5%). TrkA was diluted with the kinase reaction buffer to prepare a solution at 38.5 ng/mL (enzyme solution). Adenosine triphosphate (hereinafter abbreviated as ATP) was preliminarily diluted in distilled water to prepare a 10 mM solution which was then divided into containers and stored at −20° C. The 10 mM ATP solution and Fluorescein-Poly GT were diluted in the kinase reaction buffer to prepare a solution containing […] of ATP and 500 nM of Fluorescein-Poly GT (ATP-substrate solution). EDTA (0.5 M; pH 8.0) and LanthaScreen™ Tb-PY20 were diluted in the TR-FRET Dilution Buffer to prepare a solution containing 20 mM of EDTA and 4 nM of LanthaScreen™ Tb-PY20 (detection buffer).
The solutions of the present compound (5 μL/well) and the enzyme solution (10 μL/well) were added to a 96-half well assay plate and the plate was shaken at room temperature for 10 minutes on a plate shaker (IKA™ MTS2/4 digital microplate, IKA Japan K.K.). As a control and a blank, the kinase reaction buffer containing 5% DMSO (5 μL/well) was added in place of the solution of the present compound. As a blank, the kinase reaction buffer (10 μL/well) was added in the place of the enzyme solution. The ATP-substrate solution (10 μL/well) was then added to the plate to initiate kinase reaction and the plate was shaken in the dark at room temperature for 1 hour on the plate shaker (final concentration of TrkA: 15.4 ng/mL, final concentration of the substrate: 200 nM and final concentration of ATP: 150 μM). Kinase reaction was terminated by adding the detection buffer (25 μL/well) to the plate and the plate was shaken in the dark at room temperature for 30 minutes on the plate shaker. On an Analyst GT (Molecular Devices Japan, K.K.) the wells were irradiated with excitation light at 340 nm and the fluorescence intensities at 520 nm and 495 nm were measured. The fluorescence intensity at 520 nm for each well was divided by the fluorescence intensity at 495 nm to calculate the time resolved fluorescence resonance energy transfer (TR-FRET) ratio.
The inhibition rate (%) of the present compound was calculated according to the following Equation 1: Inhibition rate (%)={1−(AX−AB)/(AC−AB)×100 Equation 1
wherein AX: the TR-FRET ratio when the present compound is added;
AB: the TR-FRET of the blank; and
AC: the TR-FRET of the control.
The value for 50% inhibition by the present compound (IC50 value) was calculated from the inhibition curve based on the inhibition rate of the present compound at respective concentrations.

T1 sequence (P04629 33-796): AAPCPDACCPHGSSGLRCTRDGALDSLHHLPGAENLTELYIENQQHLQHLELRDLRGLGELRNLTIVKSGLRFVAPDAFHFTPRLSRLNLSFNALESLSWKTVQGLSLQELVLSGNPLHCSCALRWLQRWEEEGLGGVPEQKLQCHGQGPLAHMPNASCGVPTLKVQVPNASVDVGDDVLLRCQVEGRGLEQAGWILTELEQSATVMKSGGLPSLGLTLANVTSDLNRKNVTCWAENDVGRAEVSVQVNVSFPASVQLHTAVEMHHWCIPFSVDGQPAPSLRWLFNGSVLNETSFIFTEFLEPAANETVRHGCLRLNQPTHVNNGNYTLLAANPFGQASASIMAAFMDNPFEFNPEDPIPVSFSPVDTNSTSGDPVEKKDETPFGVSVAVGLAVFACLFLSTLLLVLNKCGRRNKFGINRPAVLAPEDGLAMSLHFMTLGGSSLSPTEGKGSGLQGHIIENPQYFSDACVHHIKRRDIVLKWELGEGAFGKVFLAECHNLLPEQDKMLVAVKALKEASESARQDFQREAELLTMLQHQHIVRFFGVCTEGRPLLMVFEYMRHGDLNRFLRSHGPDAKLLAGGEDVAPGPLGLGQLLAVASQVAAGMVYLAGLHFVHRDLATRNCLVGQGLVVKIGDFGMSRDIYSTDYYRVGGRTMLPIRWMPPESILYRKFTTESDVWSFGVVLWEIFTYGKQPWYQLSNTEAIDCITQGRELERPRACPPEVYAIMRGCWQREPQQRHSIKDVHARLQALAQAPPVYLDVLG

Take `CCCNc1ncc(-c2ccc(Oc3ncc(NC(=O)Nc4cc(C(F)(F)F)ccc4S(C)(=O)=O)cn3)cc2)s1` [Example 85-226, 1-[2-(methylsulfonyl)-5-(trifluoromethyl)phenyl]-3-(2-{4-[2-(propylamino)-1,3-thiazol-5-yl]phenoxy}-5-pyrimidinyl)urea]: the IC50 in test [1] was found to be 0.001 µM. In addition, in test [2], the inhibition in vivo at 1 mg/kg amounted to 100%.

Regarding `CCCNc1ncc(-c2ccc(Oc3ncc(NC(=O)Nc4cc(F)ccc4F)cn3)cc2)s1` [Example 85-209, 1-(2,5-difluorophenyl)-3-(2-{4-[2-(propylamino)-1,3-thiazol-5-yl]phenoxy}-5-pyrimidinyl)urea], the 50% inhibitory concentration (IC50) in test [1] is 0.004 µM. In addition, the inhibition in vivo at 1 mg/kg in test [2] is 81%.

Regarding `CCCNc1ncc(-c2ccc(Oc3ncc(NC(=O)Nc4cc(C(F)(F)F)ccc4S(=O)(=O)N(C)C)cn3)cc2)s1` [Example 85-225, N,N-dimethyl-2-{[(2-{4-[2-(propylamino)-1,3-thiazol-5-yl]phenoxy}-5-pyrimidinyl)carbamoyl]amino}-4-(trifluoromethyl)benzenesulfonamide], the half-maximal inhibitory concentration (IC50) in test [1] came out at 0.004 µM. In addition, the inhibition in vivo at 1 mg/kg in test [2] came to 94%.

For `CCCNc1ncc(-c2ccc(Oc3ncc(NC(=O)Nc4cc(C(F)(F)F)ccc4-n4ccc(C(F)(F)F)n4)cn3)cc2)s1` [Example 85-184, 1-(2-{4-[2-(propylamino)-1,3-thiazol-5-yl]phenoxy}-5-pyrimidinyl)-3-{5-(trifluoromethyl)-2-[3-(trifluoromethyl)-1H-pyrazol-1-yl]phenyl}urea], the IC50 in test [1] is 0.002 µM. Besides, the inhibition in vivo at 1 mg/kg in test [2] amounted to 96%.

As for `CC(C)(C)c1cc(NC(=O)Nc2cnc(Oc3ccc(-c4cnc(N5CCCC5=O)s4)cc3)nc2)n(-c2ccc3c(c2)CCO3)n1` [Example 66-19, 1-[1-(2,3-dihydro-1-benzofuran-5-yl)-3-(2-methyl-2-propanyl)-1H-pyrazol-5-yl]-3-(2-{4-[2-(2-oxo-1-pyrrolidinyl)-1,3-thiazol-5-yl]phenoxy}-5-pyrimidinyl)urea], the IC50 is 0.004 µM in test [1] and 0.02 µM in test [3].

(Values after US9242977B2, “Trk-inhibiting compound” (ONO PHARMACEUTICAL CO., LTD., priority 2012, dated 2016).)
